Measured values as given in patent EP2140864A2 (H. Lundbeck A/S, priority 2001, dated 2002).
Where two headings read alike, the source gives them in different places. Marks after values point to notes of the source that are not given here.

How the values were obtained:
human GAL1 receptor = molecular target: T1, human GAL1 receptor (Homo sapiens, UniProt P47211); test: Radioligand binding at cloned human GAL1 receptor
T1 construct: expressed in transfected cells
T1 sequence (P47211 1-349): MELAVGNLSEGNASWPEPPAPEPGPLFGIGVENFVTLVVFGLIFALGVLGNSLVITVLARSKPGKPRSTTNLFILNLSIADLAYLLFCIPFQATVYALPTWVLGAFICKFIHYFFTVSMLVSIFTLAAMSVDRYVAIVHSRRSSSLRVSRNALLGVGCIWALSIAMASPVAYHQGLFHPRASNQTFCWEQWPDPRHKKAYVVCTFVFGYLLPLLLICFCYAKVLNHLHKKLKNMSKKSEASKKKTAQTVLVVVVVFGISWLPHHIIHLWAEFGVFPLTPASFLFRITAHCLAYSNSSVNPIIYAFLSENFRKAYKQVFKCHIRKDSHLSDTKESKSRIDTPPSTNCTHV
Method: The binding properties of the pyrimidines of the present invention were evaluated at the cloned human galanin receptors, GAL1, GAL2, and GAL3, using protocols described herein. […]
LM(tk-) cells were stably transfected with the human GAL1 or GAL3 receptor. CHO cells were stably transfected with the human GAL2 receptor.
cDNAs for the human and rat GAL1, and human and rat GAL3 receptors were transfected with a G-418 resistant gene into the mouse fibroblast LM(tk-) cell line by a calcium phosphate transfection method (Cullen, 1987). Stably transfected cells were selected with G-418. Human and rat GAL2 receptors were similarly transfected into CHO cells.
Membranes were harvested from stably transfected LM(tk-) cells. Adherent cells were washed twice in ice-cold phosphate buffered saline (138 mM NaCl, 8.1 mM Na2HPO4, 2.5 mM KCl, 1.2 mM KH2PO4, 0.9 mM CaCl2, 0.5 mM MgCl2, pH 7.4) and lysed by sonication in ice-cold sonication buffer (20 mM Tris-HCl, 5 mM EDTA, pH 7.7). Large particles and debris were cleared by low speed centrifugation (200 x g, 5 min, 4°C). Membranes were collected from the supernatant fraction by centrifugation (32,000 x g, 18 min, 4°C), washed with ice-cold hypotonic buffer, and collected again by centrifugation (32,000 x g, 18 min, 4°C). The final membrane pellet was resuspended by sonication into a small volume of ice-cold binding buffer (-1 ml for every 5 plates: 10 mM NaCl, 20 mM HEPES, 0.22 mM KH2PO4, 1.26 mM CaCl2, 0.81 mM MgSO4, pH 7.4). Protein concentration was measured by the Bradford method (Bradford, 1976) using Bio-Rad Reagent, with bovine serum albumin as a standard. Membranes were held on ice for up to one hour and used fresh, or flash frozen and stored in liquid nitrogen. Membranes were prepared similarly from CHO cells.
Galanin Recentors: Binding assays were performed according to the following published methods: human GAL3 (PCT International Publication No. WO 98/15570), human GAL1 (PCT International Publication No. WO 95/2260), human GAL2 (PCT International Publication No. WO 97/26853).
(§1) Binding data were analyzed using nonlinear regression and statistical techniques available in the GraphPAD Prism package (San Diego, CA). Enzymatic assay data were derived from a standard curve of reference compound data.

NE transporter [1] = test: Binding at native NE transporter; conditions: Table 8; Ki rNE Uptk divided by Ki hGAL3
Method: (§2) The binding properties of the compounds of the present invention were evaluated at one or more cloned receptors or native, tissue-derived transporters, using protocols described below.
(§3) The methods to determine binding affinity at native transporters are described in the following publications: 5HT transporter and NE transporter (Owens et al., 1997), and DA transporter (Javitch et al, 1984).
as §1

NE transporter [2] = molecular target: NE transporter (Rattus norvegicus, UniProt Q63380); test: Binding at native NE transporter; conditions: Table 7; native transporter, head prints r (rat); read-out: rNE Uptk Ki
Sequence of NE transporter (Rattus norvegicus, UniProt Q63380) (Q63380 1-617): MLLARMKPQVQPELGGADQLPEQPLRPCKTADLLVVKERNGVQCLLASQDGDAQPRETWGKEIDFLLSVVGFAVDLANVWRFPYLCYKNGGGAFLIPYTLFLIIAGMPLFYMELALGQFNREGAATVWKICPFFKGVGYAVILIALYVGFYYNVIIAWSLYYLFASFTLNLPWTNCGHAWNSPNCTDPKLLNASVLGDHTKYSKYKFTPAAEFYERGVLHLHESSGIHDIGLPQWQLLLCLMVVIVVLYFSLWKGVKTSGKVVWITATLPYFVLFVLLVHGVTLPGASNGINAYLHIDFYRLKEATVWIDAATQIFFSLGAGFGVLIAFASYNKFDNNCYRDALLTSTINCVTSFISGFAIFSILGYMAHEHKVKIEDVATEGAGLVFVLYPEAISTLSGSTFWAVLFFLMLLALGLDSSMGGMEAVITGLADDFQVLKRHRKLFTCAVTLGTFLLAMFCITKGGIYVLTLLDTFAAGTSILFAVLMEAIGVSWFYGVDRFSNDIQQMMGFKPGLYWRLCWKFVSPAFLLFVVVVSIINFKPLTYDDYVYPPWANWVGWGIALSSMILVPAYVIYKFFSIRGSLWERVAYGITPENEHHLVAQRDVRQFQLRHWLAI
Method: as §2, §3, §1

Male Sprague-Dawley rats = test: Rat Forced Swim Test (FST); format: in vivo; conditions: for antidepressant profile in the FST (conclusion): overall conclusion of the study
Method: The procedure used in this study was similar to that previously described (Porsolt, et al., 1978), except the water depth (30 cm in this procedure). The greater depth in this test prevented the rats from supporting themselves by touching the bottom of the cylinder with their feet. Swim sessions were conducted by placing rats in individual plexiglass cylinders (46 cm tall x 20 cm in diameter) containing 23-25°C water 30 cm deep (Porsolt, et al. used a depth of only 15 cm; also, see Detke, et al., 1995). Two swim tests were conducted always between 1200 and 1800 hours: an initial 15-min pretest followed 24 h later by a 5-minute test. […] All other test sessions were conducted between 1300 to 1700 hours. Following all swim sessions, rats were removed from the cylinders, dried with paper towels and placed in a heated cage for 15 minutes and returned to their home cages. All test sessions were videotaped using a Panasonic color video camera and recorder for scoring later.
Male Sprague-Dawley rats (Taconic Farms, NY) were used in all experiments. Rats were housed in pairs and maintained on a 12:12-h light-dark cycle. Rats were handled for 5 minutes each day for 5 days prior to behavioral testing.
The rat's behavior was rated at 5 second intervals during the 5 minute test as one of the following: • 1. Immobility- rat remained floating in the water without struggling and was only making those movements necessary to keep its head above water; • 2. Climbing - rat was making active movements with its forepaws in and out of the water, usually directed against the walls; • 3. Swimming - rat was making active swimming motions, more than necessary to merely maintain its head above water, e.g. moving around in the cylinder; and • 4. Diving - entire body of the rat was submerged.
All of the behavior scoring was done by a single rater, who was blind to the treatment condition. The rater was also present in the room throughout the entire test period.
All injections were given using 1 cc tuberculin syringe with 26 3/8 gauge needles (Becton-Dickinson, VWR Scientific, Bridgeport, NJ). The volume of injection was 1 ml/kg.
The drugs were dissolved in 100% N,N-dimethylacetamide. All administrations were given using 1 cc tuberculin syringes, to which a 3 inch, curved, stainless steel gavage needle was attached. The volume of administration was 1 ml/kg.
The compounds were dissolved in 100% N,N-dimethylacetamide. All administrations were given using 1 cc tuberculin syringes, to which a 3 inch, curved, stainless steel gavage needle was attached. The volume of administration was 1 ml/kg.
The forced swim test data (immobility, swimming, climbing, diving) were subjected to a randomized, one-way ANOVA and post hoc tests conducted using the Student-Newman-heuls test. The data were analyzed using the GBSTAT program, version 6.5 (Dynamics Microsystems, Inc., Silver Spring, MD, 1997). All data are presented as means ± S.E.M.

[3] = pyrimidines, read-out: Ki GalR1
[4] = 3 mg/kg p.o., single administration, 1 hr. before test
[5] = 10 mg/kg p.o., single administration, 1 hr. before test
[6] = 30 mg/kg p.o., single administration, 1 hr. before test
[7] = 0.3 mg/kg p.o., single administration, 1 hr. before test
[8] = 1 mg/kg p.o., single administration, 1 hr. before test
[9] = 30 mg/kg i.p., single injection, 5 minute test

SMILES | Ki (human GAL1 receptor; [3]) [µM] | selectivity ratio rNE Uptk (NE transporter [1]) | Ki (human GAL1 receptor; indolones, read-out: Ki GalR1) [µM] | Ki (NE transporter [2]) [µM] | Climbing (Male Sprague-Dawley rats; [4]) | Diving (Male Sprague-Dawley rats; [4]) | Immobility (Male Sprague-Dawley rats; [4]) | Swimming (Male Sprague-Dawley rats; [4]) | Climbing (Male Sprague-Dawley rats; [5]) | Diving (Male Sprague-Dawley rats; [5]) | Immobility (Male Sprague-Dawley rats; [5]) | Swimming (Male Sprague-Dawley rats; [5]) | Climbing (Male Sprague-Dawley rats; [6]) | Diving (Male Sprague-Dawley rats; [6]) | Immobility (Male Sprague-Dawley rats; [6]) | Swimming (Male Sprague-Dawley rats; [6]) | antidepressant profile in the FST (conclusion) (Male Sprague-Dawley rats) | other results
CN(CCc1c[nH]c2ccccc12)c1nc(Nc2ccc(F)c(F)c2)cc(N2CCCCC2)n1 [Example 15] | 2.43 | >100 | – | – | – | – | – | – | – | – | – | – | – | – | – | – | – | –
O=C1C(=Nc2ccc(Cl)cc2)c2ccccc2N1c1ccccc1 [Example 97, 3-[(4-CHLOROPHENYL)IMINO]-1-PHENYL-1,3-DIHYDRO-2H-INDOL-2-ONE] | – | >30 | > 10 | 4.41 | – | – | – | – | – | – | – | – | – | – | – | – | – | –
O=C1C(=Nc2ccc(Br)cc2)c2ccccc2N1c1ccccc1 [Example 98, 3-[(4-BROMOPHENYL)IMINO]-1-PHENYL-1,3-DIHYDRO-2H-INDOL-2-ONE] | – | >100 | > 10 | 5.5 | 4.3 ± 0.9^b | 0.1 ± 0.1 | 35 ± 2.6^a | 20.4 ± 1.9^c | 2.4 ± 0.3 | 0.8 ± 0.4 | 39 ± 1.1^a | 17.6 ± 1.0^c | 2.0 ± 0.3 | 0.2 ± 0.2 | 38 ± 2.3^a | 20.3 ± 2.1^c | resembling that of the clinically established antidepressant fluoxetine | –
Cc1ccc(Nc2cc(N3CCCCC3)nc(N(C)CCc3c[nH]c4ccccc34)n2)cc1 [Example 11] | – | >100 | – | – | – | – | – | – | – | – | – | – | – | – | – | – | – | –
O=C1C(=Nc2cc(Cl)cc(Cl)c2)c2ccccc2N1c1ccccc1 [Example 103, 3-[(3,5-DICHLOROPHENYL)IMINO]-1-PHENYL-1,3-DIHYDRO-2H-INDOL-2-ONE] | – | – | > 10 | – | 2.8 ± 0.6 | 0.5 ± 0.4 | 44 ± 2.7 | – | 3.5 ± 0.6 | 0.4 ± 0.2 | 42 ± 2.2 | 14.3 ± 1.6 | 4.8 ± 0.7 | 1.1 ± 0.5 | 32 ± 1.8^a | 22.7 ± 1.1^c | has antidepressant properties | –
Cc1ccc(Nc2cc(N3CCCCC3)nc(N3CCN(c4ncccc4C(F)(F)F)CC3)n2)cc1 [Example 34] | 0.912 | >100 | – | – | 4.3 ± 0.8 | 0.3 ± 0.3 | 35 ± 2.0^b | 20.8 ± 1.3^d,e | 2.0 ± 0.4 | 0.4 ± 0.3 | 49 ± 1.4 | 8.2 ± 1.2 | – | – | – | – | resembles that of antidepressants | Climbing (Male Sprague-Dawley rats; [7]): 3.3 ± 0.7; Diving (Male Sprague-Dawley rats; [7]): 0.2 ± 0.1; Immobility (Male Sprague-Dawley rats; [7]): 45 ± 1.5^a; Swimming (Male Sprague-Dawley rats; [7]): 11.6 ± 0.9^d; Climbing (Male Sprague-Dawley rats; [8]): 5.0 ± 0.8^c; Diving (Male Sprague-Dawley rats; [8]): 0.3 ± 0.2; Immobility (Male Sprague-Dawley rats; [8]): 35 ± 1.9^b; Swimming (Male Sprague-Dawley rats; [8]): 19.6 ± 1.3^d,e
O=C1C(=Nc2ccc(C(F)(F)F)cc2)c2ccccc2N1c1ccccc1 [Example 95, 1-PHENYL-3-[[4-(TRIFLUOROMETHYL)PHENYL]IMINO]-1,3-DIHYDRO-2H-INDOL-2-ONE] | – | >100 | > 10 | 6.1 | 2.6 ± 0.8 | 0.0 ± 0.0 | 40 ± 3.3 | 17.1 ± 2.5 | 1.3 ± 0.5 | 0.1 ± 0.1 | 52 ± 1.2^a | 6.9 ± 0.9^b | 1.0 ± 0.3 | 0.0 ± 0.0 | 54 ± 0.9^a | 4.8 ± 0.7^b | does not produce antidepressant-like actions | –
COc1cccc(Nc2cc(N3CCCCC3)nc(N(C)CCc3c[nH]c4ccccc34)n2)c1 [Example 17] | – | >100 | – | 18.3 | – | – | – | – | – | – | – | – | – | – | – | – | – | –
CN(C)c1cc(Nc2ccc(Cl)c(Cl)c2)nc(Nc2ccccc2)n1 [Example 60] | > 5 | >100 | – | 46.1 | – | – | – | – | – | – | – | – | – | – | – | – | – | –
O=C1C(=Nc2cccc(C(F)(F)F)c2)c2ccccc2N1c1ccccc1 [Example 92, 1-PHENYL-3- [[3-(TRIFLUOROMETHYL)PHENYL]IMINO]-1,3-DIHYDRO-2H-INDOL-2-ONE] | – | – | – | – | – | – | – | – | – | – | – | – | – | – | – | – | – | Climbing (Male Sprague-Dawley rats; 1 mg/kg i.p., single injection, 5 minute test): 11.7 ± 1.1 counts; Climbing (Male Sprague-Dawley rats; 3 mg/kg i.p., single injection, 5 minute test): 14.6 ± 1.5 counts; Climbing (Male Sprague-Dawley rats; [9]): 8.6 ± 1.7 counts; Immobility (Male Sprague-Dawley rats; [9]): 25 ± 3.5 counts
O=C1C(=Nc2cccc(Cl)c2)c2ccccc2N1c1ccccc1 [Example 94, 3-[(3-CHLOROPHENYL)IMINO]-1-PHENYL-1,3-DIHYDRO-2H-INDOL-2-ONE] | – | >30 | > 10 | 4.88 | – | – | – | – | – | – | – | – | – | – | – | – | – | –
COC[C@@H]1[C@@H](c2ccccc2)OCCN1c1nc(Nc2ccc(C)cc2)cc(N2CCCCC2)n1 [Example 49] | – | – | – | – | 3.0 ± 0.7 | 1.0 ± 0.7 | 43 ± 1.9 | 13.1 ± 1.4 | 2.4 ± 0.7 | 0.0 ± 0.0 | 48 ± 1.7 | 10.0 ± 1.0 | 2.3 ± 0.4 | 0.4 ± 0.4 | 41 ± 2.0^a | 16.7 ± 1.3^d | – | Ki (human GAL1 receptor; read-out: Ki GalR1, pyrimidines): > 5 µM
Cc1ccc(Nc2cc(N(C)C)nc(N(C)CCc3c[nH]c4ccccc34)n2)cc1 [Example 77] | 3.8 | >100 | – | 28.1 | – | – | – | – | – | – | – | – | – | – | – | – | – | –
